Data reported in patent publication US7928099B2, “Pyrimido [4,5-D] azepine derivatives as 5-HT2c agonists” (Pfizer Inc, priority 2007, dated 2011).
Counter-ions that a name gives are not always drawn.

How the values were obtained:
[1] = molecular target: T1, human recombinant 5-HT2c receptor (Homo sapiens, UniProt P28335); assay: FLIPR fluorescent Ca2+ mobilisation agonist assay in CHO K1 cells (Method 1); type: cell-based; details: for EC50: agonist affinity, FLIPR; for Emax %: efficacy; for Emax % / Emax: percentage of mean maximal response to 10 μM 5-HT; for Emax: CHO-K1, efficacy
T1 construct: expressed in transfected cells; host or cells: CHO K1 (Chinese hamster ovary), stably transfected
T1 sequence (P28335 33-458): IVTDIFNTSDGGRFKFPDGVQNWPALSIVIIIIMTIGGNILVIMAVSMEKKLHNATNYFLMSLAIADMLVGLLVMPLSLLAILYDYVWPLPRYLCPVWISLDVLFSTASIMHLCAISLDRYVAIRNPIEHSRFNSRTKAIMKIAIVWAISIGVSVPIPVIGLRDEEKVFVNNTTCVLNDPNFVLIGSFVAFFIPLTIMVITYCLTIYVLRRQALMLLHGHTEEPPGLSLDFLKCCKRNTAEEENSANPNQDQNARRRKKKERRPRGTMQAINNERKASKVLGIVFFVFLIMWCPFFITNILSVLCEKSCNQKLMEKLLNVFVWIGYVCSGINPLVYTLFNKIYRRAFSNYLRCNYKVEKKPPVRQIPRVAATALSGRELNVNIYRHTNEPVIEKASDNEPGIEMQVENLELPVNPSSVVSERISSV
Method: (§1) The compounds of the invention were evaluated for biological activity by measuring the agonist affinity (EC50) and efficacy (Emax) at the human recombinant 5-HT2c receptor expressed in CHO K1 cells, using a fluorescent based Ca^2+ mobilisation assay format compatible with FLIPR technology (Method 1). Additionally, the binding activity of a compound was determined by measuring its affinity for the human recombinant 5-HT2c receptor membranes from Swiss 3T3 cells (Method 2).
The agonist affinity of the compounds were tested by measuring their ability to induce a fluorescent based Ca^2+ mobilization signal in a FLIPR assay using CHO K1 cells expressing recombinant human 5-HT2C receptor. Both agonist affinity (EC50) and efficacy (Emax) were determined.
Chinese hamster ovary cells (CHO K1) stably transfected with the 5-HT2c receptor were cultured under standard cell culture techniques. Specifically, cells were grown at 37° C. and 5% CO2 in Dulbecco's Modified Eagle's Medium (DMEM) culture media supplemented with 10% dialysed foetal calf serum (FCS), 1% non-essential amino acids, 1 mM sodium pyruvate, 800 μg/mL geneticin and 50 μg/ml zeocin. Cells were harvested for passaging and storage using trypsin-EDTA, centrifugation and resuspension in culture medium. Cells were grown to 60-80% confluency, harvested and adjusted to 15-20×10^6 cells/ml/vial in medium/10% DMSO and stored long-term at −80° C.
Cells were seeded into black-walled clear-bottomed 384 well plates 24 h before use. Frozen cells were defrosted in a 37° C. water bath and immediately transferred into 1 mL/vial 37° C. culture medium, diluted to 10 ml and DMSO removed by centrifugation. The cells were resuspended in 15 ml/vial of cell culture medium, counted and adjusted to give 500,000 cells/mL (10,000 cells/well). […] of cell suspension was added to the 384 well plates which were then incubated overnight at 37° C.
The maximum agonist response was determined with 5-HT at a final assay concentration of 10 μM in the diluent above. The minimum response was determined with Dulbeccos PBS (+CaCl2, +MgCl2) with 0.9% DMSO and 0.05% pluronic F-127. Test compounds, maximum and minimum controls were added to a 384 well polypropylene plate.
The FLIPR calcium assay reagent was diluted with assay buffer (Hank's Balanced Salt Solution (HBSS))/20 mM HEPES and 2.5 mM probenecid (diluted with 1M Sodium hydroxide and DPBS (+CaCl2, +MgCl2)).
20 μl/well FLIPR calcium assay reagent was added to the cell plates, which were incubated for 1 h at 37° C. Cell plates and compound plates were then transferred onto the FLIPR. The assay was run using the appropriate FLIPR program, which initiates the reaction by transferring 15 μL compound into the corresponding, well of the cell plate.
The statistical parameter exported from each well was the max peak height of the response.

[2] = molecular target: T1, human recombinant 5-HT2c receptor; assay: 3H-meselurgine radioligand binding SPA, membranes from Swiss 3T3 cells (Method 2); details: 3H-meselurgine displacement, Cheng-Prusoff; Swiss 3T3 membranes; read-out: Binding Affinity Ki
Method: as §1
The compounds were tested for biological activity by their ability to inhibit binding of the radioligand ^3H-meselurgine at the human recombinant 5-HT2C receptor expressed in the Swiss 3T3 cells using a scintillation proximity assay (SPA) technology.
Swiss 3T3 stably transfected with the 5-HT2C receptor were cultured under standard cell culture techniques. Specifically, cells were grown in 50 mL growth medium (Dulbecco's Modified Eagle's Medium (DMEM) culture media supplemented with 10% dialysed foetal calf serum (FCS), 2 mM penicillin/streptomycin and 20 μg/mL geneticin) in 225 cm^2 flasks at 37° C. and 5% CO2. Cells were grown to 60-80% confluency, harvested using trypsin-EDTA and pelleted by centrifugation for long-term storage at −80° C.
Cell pellets were thawed on ice and resuspended in 3 mL of membrane preparation buffer (see Media and Buffers for composition) per 1 mL of packed cell. The suspension was homogenised on ice for several 5 s intervals using a hand-held homogeniser. The homogenate was then centrifuged at 1,000 rpm for 5 min at 4° C.
The supernatants were then collected and retained. Initial cell & nuclei pellets (P1) were subsequently rehomogenised and centrifuged using the conditions cited above, and the supernatants collected and pooled with those retained from the first spin.
The pooled supernatants were centrifuged at 19,500 rpm for 45 min at 4° C., and the supernatants discarded. The pellets (P2) were then resuspended in 3 mL of membrane preparation buffer per 1 mL of the original packed cell volume. Protein concentrations were subsequently measured and the membrane suspension was finally frozen in aliquots of set volume and stored at −80° C. prior to use in assays.
For each batch of membrane used, optimal concentrations of Polylysine YSi SPA beads and membrane were determined. The assay free radioligand concentration was expressed as a percentage of the total free radioligand concentration to give an estimate of the radioligand depletion.
The affinity of ^3H-meselurgine for the human recombinant 5-HT2c receptor was determined for each membrane batch at the selected protein and bead concentrations. […] The mean KD for ^3H-meselurgine at a batch of membranes was determined from data from a minimum of three separate assays.
The required amount of membrane, was thawed on ice and added to a pre-determined volume of bead suspension in 50 mM HEPES buffer, pH 7.4. The beads were then pre-coupled by incubating the predetermined protein quantity per mg of bead on a roller 4° C. for 1 h. Subsequently, the bead/membrane complex was spun down at 1000 rpm for 5 min. The resulting pellet was resuspended in assay buffer at the specific concentration required for the final assay.
An aliquot of [^3H]-meselurgine stock was diluted in binding assay buffer to give a pre-determined final assay concentration less than the equilibrium dissociation constant (KD) value.
All test compounds were prepared at a concentration of 4 mM in 100% dimethyl sulphoxide (DMSO) from dry samples.
The same volume of assay buffer was added to specific wells of the plate to enable subsequent measurement of total radioligand binding. Furthermore, 5 μL of Mianserin at 25 μM (2.5 μM final assay concentration was subsequently added to pre-determined wells to determine non-specific binding (NSB).

Compound | EC50 [1] [nM] | Emax % [1] [%] | Ki [2] [nM] | Emax [1] [%]
2-[Difluoro(phenyl)methyl]-N-methyl-6,7,8,9-tetrahydro-5H-pyrimido[4,5-d]azepin-4-amine [Example 8] | 128 | 54.30 | 44.5 | 
CC1CNCCc2cnc(Cc3ccccc3)nc21 (single isomer, unassigned) [47 (Peak 1), 2-Benzyl-9-methyl-6,7,8,9-tetrahydro-5H-pyrimido[4,5-d]azepine] | 453 | 96.40 | 133 | 
CC1CNCCc2cnc(Cc3ccccc3)nc21 (single isomer, unassigned) [47 (Peak 2), 2-Benzyl-9-methyl-6,7,8,9-tetrahydro-5H-pyrimido[4,5-d]azepine] | 233 |  | 218 | 76.6
OC(c1ccccc1)c1ncc2c(n1)CCNCC2 (single isomer, unassigned; stereoisomer 1) [Example 70, Phenyl-(6,7,8,9-tetrahydro-5H-pyrimido[4,5-d]azepin-2-yl)-methanol dihydrochloride (Stereoisomer 1)] | 643 |  | 978 | 76
c1ccc(Cc2nc3c(c(-n4cccn4)n2)CCNCC3)cc1 [Example 1, 2-Benzyl-4-(1H-pyrazol-1-yl)-6,7,8,9-tetrahydro-5H-pyrimido[4,5-d]azepine] | 224 |  | 72 | 83.5
CC(c1ccccc1)c1ncc2c(n1)CCNCC2 (stereo not drawn) [Example 2, 2-(1-Phenylethyl)-6,7,8,9-tetrahydro-5H-pyrimido[4,5-d]azepine] | 198 |  | 140 | 84.9
CC(C)(c1ccccc1)c1ncc2c(n1)CCNCC2 [Example 9, 2-(1-Methyl-1-phenylethyl)-6,7,8,9-tetrahydro-5H-pyrimido[4,5-d]azepine] | 732 |  | 401 | 52.6
CC(C)(c1ccccc1)c1nc2c(c(N3CCOCC3)n1)CCNCC2 [Example 11, 2-(1-Methyl-1-phenylethyl)-4-morpholin-4-yl-6,7,8,9-tetrahydro-5H-pyrimido[4,5-d]azepine] | 884 |  | 73.5 | 75.2
c1ccc(C2(c3nc4c(c(N5CCOCC5)n3)CCNCC4)CC2)cc1 [Example 13, 4-Morpholin-4-yl-2-(1-phenylcyclopropyl)-6,7,8,9-tetrahydro-5H-pyrimido[4,5-d]azepine] | 499 |  | 2300 | 64.4
CCN(C)c1nc2c(c(NCC(C)C)n1)CCNCC2 [Example 101, N-2-ethyl-N-4-isobutyl-N-2-methyl-6,7,8,9-tetra-hydro-5H-pyrimido[4,5-d]azepine-2,4-diamine] | 326 |  |  | 49.9
CCN(C)c1nc2c(c(NC)n1)CCNCC2 [Example 102, N-2-ethyl-N-2,N-4-dimethyl-6,7,8,9-tetra-hydro-5H-pyrimido[4,5-d]-azepine-2,4-diamine] | 173 |  |  | 74.3
CCCNc1nc(N(C)CC2CC2)nc2c1CCNCC2 [Example 103, N-2-(cyclopropylmethyl)-N-2-methyl-N-4-propyl-6,7,8,9-tetrahydro-5H-pyrimido[4,5-d]azepine-2,4-diamine] | 449 |  |  | 32.7
CN(Cc1ccccc1)c1nc2c(c(N3CCOCC3)n1)CCNCC2 [Example 105, N-benzyl-N-methyl-4-morpholin-4-yl-6,7,8,9-tetrahydro-5H-pyrimido-[4,5-d]azepin-2-amine] | 202 |  |  | 64.1
CN(C)c1nc2c(c(N(C)C)n1)CCNCC2 [Example 107, N,N,N′,N′-tetramethyl-6,7,8,9-tetrahydro-5H-pyrimido[4,5-d]azepine-2,4-diamine] | 363 |  |  | 43.2
c1ccc(CNc2nc(N3CCC3)nc3c2CCNCC3)cc1 [Example 108, 2-azetidin-1-yl-N-benzyl-6,7,8,9-tetrahydro-5H-pyrimido[4,5-d]azepin-4-amine] | 149 |  |  | 44.4
C1Cc2nc(NC3CC3)nc(N3CCSCC3)c2CCN1 [Example 109, N-cyclopropyl-4-thio-morpholin-4-yl-6,7,8,9-tetrahydro-5H-pyrimido-[4,5-d]azepin-2-amine] | 247 |  |  | 87.7
c1ccc(CCNc2nc3c(c(N4CCSCC4)n2)CCNCC3)cc1 [Example 110, N-(2-phenylethyl)-4-thiomorpholin-4-yl-6,7,8,9-tetrahydro-5H-pyrimido[4,5-d]azepin-2-amine] | 604 |  |  | 38.8
CCCNc1nc2c(c(N3CCSCC3)n1)CCNCC2 [Example 111, N-propyl-4-thiomorpholin-4-yl-6,7,8,9-tetrahydro-5H-pyrimido[4,5-d]-azepin-2-amine] | 141 |  |  | 64.3
CCNc1nc2c(c(N(C)CC3CC3)n1)CCNCC2 [Example 112, N-4-(cyclopropylmethyl)-N-2-ethyl-N-4-methyl-6,7,8,9-tetrahydro-5H-pyrimido[4,5-d]azepine-2,4-diamine] | 543 |  |  | 42.8
CN(C)c1nc(N(C)Cc2ccccc2)nc2c1CCNCC2 [Example 113, N-2-benzyl-N-2,N-4,N-4-trimethyl-6,7,8,9-tetra-hydro-5H-pyrimido[4,5-d]azepine-2,4-diamine] | 279 | 50.8 |  | 
N-benzyl-N-methyl-6,7,8,9-tetrahydro-5H-pyrimido[4,5-d]azepin-2-amine hydrochloride [Example 49] | 182 | 71.20 |  | 
